The values that follow come from patent US7407940B2, “Antimicrobial hexapeptides” (Helix BioMedix Inc., priority 2005, dated 2008).

Details of data set [1]: species or system Sprague-Dawley rats. To be noted: rat, in vivo. The source says:
Each wound observed at each dressing change and the wound surface and tissue reaction assessed. There were 5 parameters of wound status that were checked: • i. Wound Film Security—Was the adhesive film used to cover the wound still completely adherent to the skin around the wound? • ii. Wound Surface—What was the exact visual appearance of the wound surface? • iii. Amount of Exudate—How much exudate was trapped under the film? In many cases, accumulated exudate causes the film to lose adherence and the exudates will escape. • iv. Severity of Tissue Reaction—A subjective rating of extent of tissue reaction on a scale of 1 (minimal), 2 (moderate), 3 (extensive). • v. % of Tissue Involved—In some situations, the wound surface contained denatures, friable tissue that could be wiped off with pressure applied to gauze. This test was used to better differentiate denatured tissue from viscous exudates.

Data set [2] relates to azole resistant strains of C. albicans. Type of data set: cell-based. To be noted: azole resistant strains of C. albicans. Here is the method: (§1) The fractional inhibitory concentration (FIC) index was used to determine the synergy between antimicrobial agents. Peptide MICs against test microorganisms were determined three times on separate occasions. […]
All strains are azole resistant clinical isolates from Prof. Ted White (Seattle Biotechnology Research Institute, Seattle)

A further data set deals with P. aeruginosa. Type of data set: cell-based. As to conditions: drug resistant P. aeruginosa. How it is done: as §1
The next data set concerns S. aureus. Briefly: Kill curve in vaginal simulant, S. aureus. Type of data set: cell-based. To be noted: FIG. 2. An excerpt:
(§2) An additional embodiment of the invention is directed towards methods of treating sexually transmitted diseases (STDs). Many of the fungal species responsible for STDs are likely to be inhibited or killed by application of one or more of the inventive hexapeptides of Table 1. Examples of such species include C. albicans, C. glabrata, and C. tropicalis. The inventive hexapeptide/s may additionally be used against other agents responsible for STDs including viruses and bacteria. The hexapeptide/s can be administered to an STD patient by any acceptable method, such as topical, oral, or systemic delivery. The hexapeptide/s can be administered in a single dose, in multiple doses, or as a continuous delivery. The hexapeptide/s can be administered in any acceptable form, such as a cream, gel, or liquid. An indication of the likelihood of activity of the hexapeptides of the present invention in the vaginal environment is shown in FIG. 2, where the activity of SEQ ID NO:55 is shown in killing curves against C. Albicans and S. aureus.

The subject of another data set is Lipoteichoic acid (LTA). Briefly: LTA binding assay. As to conditions: FIG. 7. An excerpt:
Lipoteichoic acid (LTA) is a common cell wall component of gram-positive bacteria including organisms such as S. aureus and P. acnes. The release of LTA during infection can lead to the release of mediators of the host inflammatory response which in turn can result in sepsis (septic shock). For example, when injected into animals, LTA can elicit many of the characteristic features of septic shock, including cytokine production, leukocytopenia, circulatory failure, multiple-organ dysfunction syndrome, and mortality.

The subject of another data set is MRSA. Briefly: Kill curve in 10% sheep serum-phosphate buffer against MRSA. It counts as cell-based, S. aureus. As to conditions: 10% serum / biological environments.
The next data set concerns C. albicans. Briefly: Kill curve in vaginal simulant, C. albicans. Type of data set: cell-based. To be noted: FIG. 2.
Source text: as §2

Where a SMILES comes first, the peptide text is derived from it. The star is where a group is joined. Octanoyl = CCCCCCCC(=O)*

For the compound `CCCCCCCC(=O)N[C@@H](CCCCN)C(=O)N[C@@H](Cc1ccccc1)C(=O)N[C@@H](CCCCN)C(=O)N[C@@H](Cc1c[nH]c2ccccc12)C(=O)N1CCC[C@H]1C(=O)N[C@@H](Cc1c[nH]c2ccccc12)C(N)=O` [SEQ ID NO:55] (Octanoyl-KFKWPW-NH2), in data set [1], the “tissue reaction (in words)” value was “mild”. The “synergy with clotrimazole (in words)” value in data set [2] is recorded as “exhibits synergy”. The “synergy with polymyxin B (in words)” value with P. aeruginosa is listed as “displayed synergistic activity”. Also, the “killing in vaginal simulant (in words)” value in the data set with S. aureus and in the data set with C. albicans was “killing” throughout. Also, the “LTA binding (in words)” value in the data set on Lipoteichoic acid (LTA) is “fail to bind LTA”. Besides, the “ability to kill S. aureus in serum (in words)” value with MRSA is “increased ability”.
